Reference: US6696468B2, “(S)-4-AMINO-5-CHLORO-2-METHOXY-N-[1-[1-(2-TETRAHYDROFURYL-CARBONYL)-4-[…]]-4-[…]]BENZAMIDE, PROCESS FOR THE PREPARATION THEREOF, PHARMACEUTICAL COMPOSITION CONTAINING THE SAME, AND INTERMEDIATE THEREFOR” (priority 2002, dated 2004)
pIC50: −log10 of the molar value. Where a name gives a salt, the structure may show the parent alone.

Legend:
mice of Std-ddY strain = experiment: Assay on defecation in mice; format: in vivo; design: key: −: Inactive; +: Moderately stimulated (P < 0.05); ++: Markedly stimulated (p < 0.01); conditions: fecal pellet weight vs control, Dunnett's test
Protocol: Male mice of Std-ddY strain weighing 25-30 g were used. Free access to food and water was allowed up to the beginning of the procedure. The mice (each group: five mice) were placed in a mesh bottom cage for fasting, and they were allowed for acclimation to the new environment for about one hour prior to the start of the experiment. A test compound, which was previously suspended in a 0.5% tragacanth solution, was administered orally to the mice. The fecal pellets were collected at 30, 60 and 120 minutes after the treatment of a test compound, and weighed. The statistical judgment of efficacy was carried out between the control group (treated with a 0.5% tragacanth solution) and the test compound-treated group, and determined by Dunnett's test.

[1] = test system: guinea pigs of Std-Hartley strain; experiment: Effect on electrocardiogram in guinea pigs (QTc); format: in vivo, guinea pig; conditions: anesthetized guinea pigs, iv infusion for 15 minutes, maximum dose 30 mg/kg
Protocol: Male guinea pigs of Std-Hartley strain weighing 350-500 g were anesthetized with urethan (1.5 g/kg, ip). […] RR (second): time from the peak of R-wave to the peak of the next R-wave in electrocardiogram (usually, expressed by “second”). […] Consequently, as an index for evaluating the effects on the heart, a dose to be required to prolong the QTc intervals by 5% of the electrocardiogram (ED5%) in guinea pigs was measured, which has widely been used.

colon of Beagle dogs = experiment: Gastrointestinal motility activity in conscious dog; format: in vivo; conditions: within 2 hours after administration
Description: Beagle dogs of a male were anesthetized with pentobarbital, and the abdominal cavity was opened, and force transducers (F-121S; manufactured by Star Medical Inc.) were sutured onto the seromuscular layer of the colon to make it possible to measure circular muscle contractions. Three or four force transducer were sutured onto in the colon from the lower part to the upper part at regular intervals. The lead wires from the transducers were brought out outside the body through a skin incision made between the scapulae, and were protected in a package of a jacket protector. The gastrointestinal motility activity was measured 2 or 3 weeks after the operation. The lead wires from the force transducers were connected with a telemeter system (DAS-800T: manufactured by Star Medical Inc.), and the gastrointestinal motility activity was analyzed by a personal computer system being connected therewith and recorded. A test compound was suspended in a 0.5% tragacanth solution, and administered via a cannula to be placed in the stomach to the dogs, which were one hour or more after feeding. The measurement was continued for 2 hours after the administration of test compounds.
The number of dogs showing Giant Migrating Contraction (GMC) and defecation within 2 hours after the administration of a test compound is indicated in Table 4.

Dopamine D2 receptor = target: T1, Dopamine D2 receptor (Rattus norvegicus, UniProt P61169); experiment: Dopamine D2 receptor binding assay ([3H]spiperone); conditions: rat brain crude synaptosome membrane fractions
T1 construct: Crude synaptosome membrane fractions from rat brain was used as a receptor membrane fraction; from tissue; host or cells: rat brain crude synaptosome membrane fraction
Protocol: Dopamine D2 receptor binding assay and the preparation of receptor membrane fractions therefor were carried out according to a modified method of the method of Creese, I. et al., Eur. J. Pharmacol., 46, 337 (1977) and Peroutka, S. J. and Hamik, A., Eur. J. Pharmacol., 148, 297 (1988).
Crude synaptosome membrane fractions from rat brain was used as a receptor membrane fraction, and [^3H]spiperone (D2) was used as a labeled ligand. A buffer (final volume: 1 ml) containing a receptor membrane fraction and a labelled ligand therefor was incubated for a prescribed period in the presence of a test compound in various concentrations, and the radioactive ligand binding to the receptor was separated on the filter paper using a cell harvester (manufactured by Brandel). The radioactivity on the filter was determined by a liquid scintillation counter, and the total binding of the ligand to the receptor was determined. On the other hand, the non-specific binding was determined in the presence of an excess amount of non-labeled ligand (spiperone (D2)), and the specific binding was obtained by subtracting the non-specific binding from the total binding.

[2] = target: T2, Serotonin 4 (5-HT4) receptor (Cavia porcellus, UniProt O70528); experiment: Serotonin 4 (5-HT4) receptor binding assay ([3H]-GR113808); conditions: guinea pig striatum membrane fractions, 0.1 nM [3H]-GR113808
T2 construct: from tissue; host or cells: guinea pig (Std-Hartley) brain striatum membrane fraction
Description: Std-Hartley guinea pigs weighing 300-400 g were decapitated, and the brain thereof was immediately taken out, and the striatum was dissected.
Prior to the filtration, the filter to be used was presoaked in a 0.1% solution of polyethylenimine for one hour.

Acute toxicity = conditions: male, Std-ddY, mouse, in vivo; mice, intravenous, observed for 7 days
Description: Male mice of Std-ddY strain weighing 25-30 g were used in a group of 5 or more animals. A test compound was suspended in physiological saline solution or a 1% lactose solution and administered intravenously to the mice.

T1 sequence (P61169 whole entry): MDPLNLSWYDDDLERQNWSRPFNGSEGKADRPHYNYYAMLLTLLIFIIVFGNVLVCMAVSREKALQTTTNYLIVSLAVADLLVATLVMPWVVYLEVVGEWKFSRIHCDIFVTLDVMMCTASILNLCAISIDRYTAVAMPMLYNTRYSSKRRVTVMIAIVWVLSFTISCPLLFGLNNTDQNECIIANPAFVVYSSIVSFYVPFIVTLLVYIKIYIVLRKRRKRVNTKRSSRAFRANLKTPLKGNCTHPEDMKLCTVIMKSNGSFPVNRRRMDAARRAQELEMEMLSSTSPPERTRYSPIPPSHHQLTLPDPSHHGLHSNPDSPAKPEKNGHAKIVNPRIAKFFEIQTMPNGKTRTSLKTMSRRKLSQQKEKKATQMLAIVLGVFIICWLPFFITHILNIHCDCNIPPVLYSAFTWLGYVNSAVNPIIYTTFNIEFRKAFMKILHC
T2 sequence (O70528 whole entry): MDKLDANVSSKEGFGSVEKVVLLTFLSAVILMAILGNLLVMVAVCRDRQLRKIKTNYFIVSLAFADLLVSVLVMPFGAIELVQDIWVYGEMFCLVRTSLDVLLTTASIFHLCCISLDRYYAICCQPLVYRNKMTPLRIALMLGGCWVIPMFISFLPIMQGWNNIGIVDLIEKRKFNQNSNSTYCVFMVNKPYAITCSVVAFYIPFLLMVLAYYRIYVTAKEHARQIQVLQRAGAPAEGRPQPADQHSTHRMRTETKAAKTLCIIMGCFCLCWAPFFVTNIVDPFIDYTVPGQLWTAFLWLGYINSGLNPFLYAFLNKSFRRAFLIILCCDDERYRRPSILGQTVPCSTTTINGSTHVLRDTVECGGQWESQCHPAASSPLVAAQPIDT

| SMILES | Effect (defecation in mice) (mice of Std-ddY strain; 1.0 mg/kg oral) | Effect (defecation in mice) (mice of Std-ddY strain; 3.0 mg/kg oral) | ED5%, iv (dose required to prolong the QTc intervals by 5%) [1] [mg/kg] | other results |
| --- | --- | --- | --- | --- |
| COc1cc(N)c(Cl)cc1C(=O)NC1CCN(CC2CCN(C(=O)C3CCOC3)CC2)CC1.O=C(O)/C=C/C(=O)O (stereo not shown) [Compound C, 4-amino-5-chloro-2-methoxy-N-[1-[1-(3-tetrahydrofurylcarbonyl)-4-piperidinyl-methyl]-4-piperidinyl]benzamide.fumarate] | + | ++ | 9.4 |  |
| COc1cc(N)c(Cl)cc1C(=O)N[C@H]1CCN(CCCOc2ccc(F)cc2)C[C@H]1OC (relative stereo) [Cisapride, cis-4-amino-5-chloro-N-[1-[3-(4-fluorophenoxy)propyl]-3-methoxy-4-piperidinyl]-2-methoxybenzamide] |  | − | 0.3 | Effect (defecation in mice) (mice of Std-ddY strain; 30 mg/kg oral): −; Number of dogs which showed defecation/total number of dogs to be tested (colon of Beagle dogs; 10 mg/kg intragastric): 1/7; Number to dogs which showed GMC/total number of dogs to be tested (colon of Beagle dogs; 10 mg/kg intragastric): 1/7 |
| COc1cc(N)c(Cl)cc1C(=O)NC1CCN(CC2CCN(C(=O)[C@H]3CCCO3)CC2)CC1 [Compound R, (R)-4-amino-5-chloro-2-methoxy-N-[1-[1-(2-tetrahydrofurylcarbonyl)-4-piperidinyl-methyl]-4-piperidinyl]benzamide.fumarate] | ++ | ++ | 17.4 | pIC50 (Dopamine D2 receptor): 6.02 |
| COc1cc(N)c(Cl)cc1C(=O)NC1CCN(CC2CCN(C(=O)[C@@H]3CCCO3)CC2)CC1 [Compound 2, (S)-4-amino-5-chloro-2-methoxy-N-[1-[1-(2-tetrahydrofurylcarbonyl)-4-piperidinylmethyl]-4-piperidinyl]benzamide.fumarate] | ++ | ++ | 24.9 | pIC50 [2]: 7.87; pIC50 (Dopamine D2 receptor): < 5.00; Number of dogs which showed defecation/total number of dogs to be tested (colon of Beagle dogs; 0.03 mg/kg intragastric): 1/4; Number to dogs which showed GMC/total number of dogs to be tested (colon of Beagle dogs; 0.03 mg/kg intragastric): 1/4; Number of dogs which showed defecation/total number of dogs to be tested (colon of Beagle dogs; 0.1 mg/kg intragastric): 2/5; Number to dogs which showed GMC/total number of dogs to be tested (colon of Beagle dogs; 0.1 mg/kg intragastric): 3/5; Number of dogs which showed defecation/total number of dogs to be tested (colon of Beagle dogs; 0.3 mg/kg intragastric): 3/5; Number to dogs which showed GMC/total number of dogs to be tested (colon of Beagle dogs; 0.3 mg/kg intragastric): 4/5; LD50 at 7 days (Acute toxicity): > 200 mg/kg |
| COc1cc(N)c(Cl)cc1C(=O)NC1CCN(CC2CCN(C(=O)c3ccco3)CC2)CC1 [Compound B, 4-amino-5-chloro-N-[1-[1-(2-furoyl)-4-piperidinyl-methyl]-4-piperidinyl]-2-methoxybenzamide.fumarate.1/2 hydrate] | + | + | 3.2 | Effect (defecation in mice) (mice of Std-ddY strain; 10 mg/kg oral): ++ |
| COc1cc(N)c(Cl)cc1C(=O)NC1CCN(CC2CCN(C(=O)C3CCOCC3)CC2)CC1 [Compound A, 4-amino-5-chloro-2-methoxy-N-[1-[1-(4-tetrahydropyranylcarbonyl)-4-piperidinylmethyl]-4-piperidinyl]benzamide.fumarate.1/4 hydrate] | − | − | 16.9 | Effect (defecation in mice) (mice of Std-ddY strain; 10 mg/kg oral): ++ |
| COc1cc(N)c(Cl)cc1C(=O)NC1CCN(CC2CCN(C(=O)c3ccco3)CC2)CC1 (as salt: fumarate) (hydrate or solvate) [Compound B, 4-amino-5-chloro-N-[1-[1-(2-furoyl)-4-piperidinyl-methyl]-4-piperidinyl]-2-methoxybenzamide.fumarate.1/2 hydrate] |  |  |  | melting point: 179 to 181 °C |
| COc1cc(N)c(Cl)cc1C(=O)NC1CCN(CC2CCN(C(=O)C3CCOCC3)CC2)CC1 (as salt: fumarate) (hydrate or solvate) [Compound A, 4-amino-5-chloro-2-methoxy-N-[1-[1-(4-tetrahydropyranylcarbonyl)-4-piperidinylmethyl]-4-piperidinyl]benzamide.fumarate.1/4 hydrate] |  |  |  | melting point: 235 to 237 °C |
